Reference: patent US20200224136A1, “INTESTINE-CHIP: DIFFERENTIAL GENE EXPRESSION MODEL” (priority 2019, published 2020)

Tests used:
Ileum-Chip [1] = assay: TNF-α induced inflammation in Ileum-Chip: chemokine release (ELISA) and I-CAM1/MadCAM1 expression; format: cell-based, human; set-up: Apical CXCL11 (1-TAC) / Apical CCL20 (MIP-3 alpha) / Basal CCL25 (TECK) / Basal CXCL8 (IL-8) / Basal CXCLIO (IP-10) / Basal CXCL11 (1-TAC) / Basal CCL20 (MIP-3 alpha) / Apical CCL25 (TECK) / Apical CXCL8 (IL-8) / Apical CXCLIO (IP-10): unit not given here
Excerpt: (§1) TNFα induces increased membrane expression of I-CAM1 and MadCAM1 in intestinal microvascula endothelium.
(§2) Identification of MadCAM1 and characterization of microvascular response to inflammation in Ileum-Chip. Inflammation-Induced Expression of I-CAM1 and MadCAM1 in Ileum-Chip. Read-outs: mRNA expression of vascular adhesion molecules (I-CAM1, MadCAM1); Immunofluorescent detection of I-CAM1 and MadCAM1; Epithelial and vascular release of inflammatory chemokines using ELISA (Meso Scale Discovery). FIG. 13. FIG. 14.
Summary of Evaluation of Microvascular Function in Ileum-Chip.

[2] = tested on: intestinal microvascular endothelium; assay: TNF-α stimulation of microvasculature alone: chemokine release; format: cell-based, human; set-up: unit not given here; settings: TNF-α 100 U/ml, n = 1, 4 chips/condition
Excerpt: as §2

Ileum-Chip [3] = assay: Intestinal barrier function of Ileum-Chip under TNF-α; format: cell-based, human; settings: vascular exposure, 100 U/ml (~2 ng/ml)
Method: As one example, to evaluate the integrity of the intestinal barrier 3 kDa Cascade Blue dextran (Sigma, D7132) was added to the epithelial compartment of the Duodenum-Chip at 0.1 mg/ml on the day of connecting a microfluidic device to flow, e.g., see exemplary timelines. Effluents of the endothelial compartment were sampled 3 hours after the addition of a dye, up to 24 hours, up to 48 hours, up to 72 hours, or at 48 hour intervals until the end of the assay, in order to determine the concentration of dye that has diffused through the membrane.
The apparent paracellular permeability (Papp) was calculated based on a standard curve and using the following formula: […]
as §1

[4] = tested on: Small Intestinal Organoids; settings: 30 uM DCA, 2 hours; GLP-1 (Active) assay; cited from earlier work
GLUTag Cells = settings: 250 uM, 36 minutes; Active GLP-1 (ver. 2) Assay Kit (Mesoscale Discovery); cited from earlier work
[5] = tested on: Endoscopic duodenal biopsies; settings: 300 mM, Intraduodenal Glucose Infusion, 30 min; GLP-1 (Active) ELISA Kit (Millipore); cited from earlier work
[6] = tested on: Mixed primary cultures (Colon); settings: 10 mM, 2-4 hours; Active GLP-1 ELISA-kit (Millipore); cited from earlier work
[7] = tested on: Mixed primary cultures (upper half of SI); settings: 10 mM, 2-4 hours; Active GLP-1 ELISA-kit (Millipore); cited from earlier work
[8] = TNF-α 100 U/ml, n = 1, 4 chips/condition

TNF-α
membrane expression of I-CAM1 and MadCAM1 in intestinal microvascular endothelium (Ileum-Chip [1]; 100 U/ml): increased | Apical CCL20 (MIP-3 alpha) (Ileum-Chip [1]; [8]): 170.92 ± 36.8 | Apical CCL25 (TECK) (Ileum-Chip [1]; [8]): 17.11 ± 9.2 | Apical CXCL8 (IL-8) (Ileum-Chip [1]; [8]): 16.30 ± 5.9 | Apical CXCL11 (1-TAC) (Ileum-Chip [1]; [8]): 302.01 ± 111.8 | Apical CXCLIO (IP-10) (Ileum-Chip [1]; [8]): 6.34 ± 2.3 | Basal CCL20 (MIP-3 alpha) (Ileum-Chip [1]; [8]): 93.93 ± 18.3 | Basal CCL25 (TECK) (Ileum-Chip [1]; [8]): 117.91 ± 16.1 | Basal CXCL8 (IL-8) (Ileum-Chip [1]; [8]): 1868.99 ± 198.7 | Basal CXCL11 (1-TAC) (Ileum-Chip [1]; [8]): 26.00 ± 9.1 | Basal CXCLIO (IP-10) (Ileum-Chip [1]; [8]): 502.04 ± 287.1 | Apical CCL20 (MIP-3 alpha) [2]: 0.74 ±0.9 | Apical CXCL8 (IL-8) [2]: 105.5 ± 74.2 | Apical CXCL11 (1-TAC) [2]: 0.53 ± 1.0 | Apical CXCLIO (IP-10) [2]: 0.19 ± 0.1 | Basal CCL20 (MIP-3 alpha) [2]: 3.51 ± 2.8 | Basal CXCL8 (IL-8) [2]: 1835.44 ± 282.8 | Basal CXCL11 (1-TAC) [2]: 1.74 ± 1.4 | Basal CXCLIO (IP-10) [2]: 35.22 ± 20.1 | effect on intestinal barrier function (Ileum-Chip [3]): does not affect

C[C@H](CCC(=O)O)[C@H]1CC[C@H]2[C@@H]3CC[C@@H]4C[C@H](O)CC[C@]4(C)[C@H]3C[C@H](O)[C@]12C [DCA]
GLP-1 Concentration (fold increase) [4]: 2.5-fold increase

CCCCCCCC/C=C\CCCCCCCC(=O)O [Oleic Acid]
GLP-1 Concentration (fold increase) (GLUTag Cells): 4-fold increase

OC[C@H]1OC(O)[C@H](O)[C@@H](O)[C@@H]1O (stereo partly shown) [Glucose]
GLP-1 Concentration (fold increase) [5]: 3-fold increase | GLP-1 Concentration (fold increase), Colon [6]: 10-fold increase | GLP-1 Concentration (fold increase), SI [7]: (Colon), 2-fold
